For one molecule, inhibition results are on record in US11572590B2, “Methods for evaluating tumor cell spheroids using 3D microfluidic cell culture device” (Dana-Farber Cancer Institute, Inc., priority 2017, dated 2023).

What all share (test): SelectScreen Kinase Profiling, single point inhibition and IC50 for off-target kinases
Assay type in all cases: biochemical

The target in test [1] is off-target kinases (Homo sapiens, UniProt P04626).
For test [2], the target named is off-target kinases (Homo sapiens, UniProt P49761). The following applies: CLK3, ZLYTE, ATP Km app.
Chain of off-target kinases (Homo sapiens, UniProt P49761) (P49761 whole entry): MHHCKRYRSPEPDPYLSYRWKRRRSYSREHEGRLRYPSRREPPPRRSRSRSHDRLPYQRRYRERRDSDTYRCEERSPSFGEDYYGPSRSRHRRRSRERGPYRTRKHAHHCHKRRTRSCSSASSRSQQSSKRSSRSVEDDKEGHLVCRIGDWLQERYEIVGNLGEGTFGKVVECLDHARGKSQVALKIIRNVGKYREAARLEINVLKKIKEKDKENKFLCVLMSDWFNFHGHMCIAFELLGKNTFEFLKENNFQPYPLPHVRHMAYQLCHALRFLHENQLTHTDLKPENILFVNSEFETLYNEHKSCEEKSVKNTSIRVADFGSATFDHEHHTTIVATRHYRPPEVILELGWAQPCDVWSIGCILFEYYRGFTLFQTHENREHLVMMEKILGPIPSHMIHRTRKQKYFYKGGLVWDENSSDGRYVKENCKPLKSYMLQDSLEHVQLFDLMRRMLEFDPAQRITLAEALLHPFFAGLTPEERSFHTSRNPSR
Test [3] deals with T1, off-target kinases (Homo sapiens, UniProt P29320).
T1 sequence (P29320 21-983): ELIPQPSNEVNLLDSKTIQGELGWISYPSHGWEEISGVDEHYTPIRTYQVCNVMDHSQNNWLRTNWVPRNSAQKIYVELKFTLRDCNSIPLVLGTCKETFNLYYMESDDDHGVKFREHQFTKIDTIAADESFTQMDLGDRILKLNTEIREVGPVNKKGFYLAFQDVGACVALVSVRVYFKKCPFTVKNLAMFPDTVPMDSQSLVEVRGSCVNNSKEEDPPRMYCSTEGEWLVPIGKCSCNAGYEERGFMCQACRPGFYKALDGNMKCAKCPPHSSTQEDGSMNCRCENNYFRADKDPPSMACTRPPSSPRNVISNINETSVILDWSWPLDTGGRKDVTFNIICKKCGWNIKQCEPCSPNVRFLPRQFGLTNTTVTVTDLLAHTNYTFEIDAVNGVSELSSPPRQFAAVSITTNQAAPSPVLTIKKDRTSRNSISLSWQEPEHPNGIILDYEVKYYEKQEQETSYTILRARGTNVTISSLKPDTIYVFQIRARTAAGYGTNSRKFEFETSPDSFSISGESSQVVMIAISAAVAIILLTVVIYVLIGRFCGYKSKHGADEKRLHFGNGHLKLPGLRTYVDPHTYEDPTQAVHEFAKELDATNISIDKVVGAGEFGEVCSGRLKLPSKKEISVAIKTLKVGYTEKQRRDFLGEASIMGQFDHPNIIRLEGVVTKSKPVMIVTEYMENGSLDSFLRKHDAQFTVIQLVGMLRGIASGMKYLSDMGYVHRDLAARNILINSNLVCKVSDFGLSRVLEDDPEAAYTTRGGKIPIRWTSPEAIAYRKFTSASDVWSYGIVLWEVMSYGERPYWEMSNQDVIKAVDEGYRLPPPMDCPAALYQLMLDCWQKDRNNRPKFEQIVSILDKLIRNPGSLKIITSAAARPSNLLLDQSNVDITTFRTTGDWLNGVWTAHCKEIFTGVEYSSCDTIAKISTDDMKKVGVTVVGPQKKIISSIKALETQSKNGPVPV
The settings on record: EPHA3, LanthaScreen Binding. In general terms: In TR-FRET formats the signal depends on donor and acceptor labels being close together.

In test [4] the target is T2, off-target kinases (Homo sapiens, UniProt P25098).
T2 sequence (P25098 1-689): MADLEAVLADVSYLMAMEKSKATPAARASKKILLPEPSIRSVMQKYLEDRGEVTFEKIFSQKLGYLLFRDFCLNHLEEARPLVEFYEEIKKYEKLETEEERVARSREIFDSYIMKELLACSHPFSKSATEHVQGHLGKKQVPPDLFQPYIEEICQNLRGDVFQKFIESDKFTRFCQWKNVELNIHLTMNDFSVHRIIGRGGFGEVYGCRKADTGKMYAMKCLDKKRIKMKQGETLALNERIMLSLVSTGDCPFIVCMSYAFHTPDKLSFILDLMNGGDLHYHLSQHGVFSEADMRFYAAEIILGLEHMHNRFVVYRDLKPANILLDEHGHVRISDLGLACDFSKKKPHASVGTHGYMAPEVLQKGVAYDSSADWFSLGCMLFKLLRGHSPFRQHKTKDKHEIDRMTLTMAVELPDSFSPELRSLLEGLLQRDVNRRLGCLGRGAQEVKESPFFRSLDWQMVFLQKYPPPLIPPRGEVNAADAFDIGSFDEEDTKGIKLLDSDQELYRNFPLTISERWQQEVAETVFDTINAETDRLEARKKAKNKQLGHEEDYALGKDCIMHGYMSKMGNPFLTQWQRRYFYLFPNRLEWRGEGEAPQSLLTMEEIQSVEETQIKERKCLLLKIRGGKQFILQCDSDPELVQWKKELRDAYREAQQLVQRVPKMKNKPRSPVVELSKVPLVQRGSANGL
The settings on record: ADRBK1 (GRK2), ZLYTE, ATP Km app.

Like-named read-outs stand apart in the source and are kept apart here.

Chain of off-target kinases (Homo sapiens, UniProt P04626) (P04626 23-1255): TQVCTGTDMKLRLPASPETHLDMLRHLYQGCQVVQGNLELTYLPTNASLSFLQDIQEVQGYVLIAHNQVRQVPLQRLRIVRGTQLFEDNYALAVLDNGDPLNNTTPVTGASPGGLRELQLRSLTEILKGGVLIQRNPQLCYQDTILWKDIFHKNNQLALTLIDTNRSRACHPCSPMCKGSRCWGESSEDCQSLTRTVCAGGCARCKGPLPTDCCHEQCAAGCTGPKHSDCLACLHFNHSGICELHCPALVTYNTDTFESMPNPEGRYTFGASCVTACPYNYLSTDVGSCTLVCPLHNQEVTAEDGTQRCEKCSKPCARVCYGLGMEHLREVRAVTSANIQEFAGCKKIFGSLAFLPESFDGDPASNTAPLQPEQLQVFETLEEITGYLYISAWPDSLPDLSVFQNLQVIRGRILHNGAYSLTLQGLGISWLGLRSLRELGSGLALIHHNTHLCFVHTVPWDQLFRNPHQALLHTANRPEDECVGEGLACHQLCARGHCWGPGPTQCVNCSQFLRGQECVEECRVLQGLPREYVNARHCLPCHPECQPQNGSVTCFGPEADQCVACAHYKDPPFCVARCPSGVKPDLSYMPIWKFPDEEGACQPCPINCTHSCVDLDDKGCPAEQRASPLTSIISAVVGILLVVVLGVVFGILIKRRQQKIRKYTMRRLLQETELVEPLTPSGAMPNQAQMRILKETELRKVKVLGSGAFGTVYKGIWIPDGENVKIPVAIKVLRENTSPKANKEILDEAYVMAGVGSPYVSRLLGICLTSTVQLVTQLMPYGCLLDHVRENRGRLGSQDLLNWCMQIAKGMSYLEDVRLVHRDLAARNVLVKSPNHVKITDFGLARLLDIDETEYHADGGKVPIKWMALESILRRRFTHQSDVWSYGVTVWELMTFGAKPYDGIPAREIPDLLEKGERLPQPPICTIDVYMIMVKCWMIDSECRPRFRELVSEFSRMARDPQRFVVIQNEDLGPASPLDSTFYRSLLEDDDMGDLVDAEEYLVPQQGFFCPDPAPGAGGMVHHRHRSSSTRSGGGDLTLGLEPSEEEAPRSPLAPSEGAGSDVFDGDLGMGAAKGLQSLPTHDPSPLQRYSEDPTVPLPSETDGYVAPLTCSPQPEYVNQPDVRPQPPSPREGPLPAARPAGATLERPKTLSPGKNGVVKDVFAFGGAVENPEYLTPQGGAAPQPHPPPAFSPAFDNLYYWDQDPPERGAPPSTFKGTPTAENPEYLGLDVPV

A word on the inhibition: it is the change of the read-out against control, counted positive when it falls. For `N#Cc1cc(-c2ncnc(Nc3ccc(N4CCN(C5COC5)CC4)cc3)n2)ccc1OC1CCOCC1` [Compound 1, 5-(4-((4-(4-(oxetan-3-yl)piperazin-1-yl)phenyl)amino)-1,3,5-triazin-2-yl)-2-((tetrahydro-2H-pyran-4-yl)oxy)benzonitrile], the inhibition on off-target kinases [1] (ERBB2 (HER2), ZLYTE, ATP Km app, read-out: % Inhibition 1) was 0%; at off-target kinases [1] (ERBB2 (HER2), ZLYTE, ATP Km app, read-out: % Inhibition 2), -3%; on off-target kinases [1] (read-out: % Inhibition Avg), -1%; at off-target kinases [2] (read-out: % Inhibition 1), 1%; at off-target kinases [2] (read-out: % Inhibition 2), 3%; on off-target kinases [2] (read-out: % Inhibition Avg), 2%. The inhibition was 6% at off-target kinases [3] (read-out: % Inhibition 1); 3% at off-target kinases [3] (read-out: % Inhibition 2); 4% on off-target kinases [3] (read-out: % Inhibition Avg); 3% at off-target kinases [4] (read-out: % Inhibition 1); 7% at off-target kinases [4] (read-out: % Inhibition 2); 5% on off-target kinases [4] (read-out: % Inhibition Avg).
